From US20260217708A1, “FUSED BENZAZEPINE DERIVATIVES FOR USE IN THE TREATMENT OF CANCER AND EPILEPSY” (UCB BIOPHARMA SRL, priority 2023, published 2026)

Columns and labels:
system Xc^− [1] = biological target: T1, system Xc^− (Homo sapiens, UniProt Q9UPY5); test: Cystine-induced glutamate release assay; assay type: cell-based; parameters: endogenous in cells; host or cells: H4 cells; settings: H4 cells, sodium-free HEPES buffer, 50 μM L-Cystine, 2 hours, Amplex Red glutamate readout; read-out: pIC50 Cystine-induced glutamate release assay (converted)
T1 sequence (Q9UPY5 1-501): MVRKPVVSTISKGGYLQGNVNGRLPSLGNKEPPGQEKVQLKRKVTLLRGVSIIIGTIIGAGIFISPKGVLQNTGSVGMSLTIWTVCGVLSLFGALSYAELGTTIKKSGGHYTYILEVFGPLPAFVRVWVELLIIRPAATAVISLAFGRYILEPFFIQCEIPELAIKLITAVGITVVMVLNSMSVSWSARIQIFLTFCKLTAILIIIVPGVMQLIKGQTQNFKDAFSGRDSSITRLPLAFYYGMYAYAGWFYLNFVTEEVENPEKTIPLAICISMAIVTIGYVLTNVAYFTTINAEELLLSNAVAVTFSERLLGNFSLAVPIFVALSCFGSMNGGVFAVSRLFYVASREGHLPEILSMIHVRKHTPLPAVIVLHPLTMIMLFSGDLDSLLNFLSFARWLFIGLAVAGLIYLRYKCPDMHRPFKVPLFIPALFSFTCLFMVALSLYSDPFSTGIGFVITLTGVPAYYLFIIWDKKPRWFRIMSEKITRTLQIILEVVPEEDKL
T1 sequence (P08195 1-529 partner): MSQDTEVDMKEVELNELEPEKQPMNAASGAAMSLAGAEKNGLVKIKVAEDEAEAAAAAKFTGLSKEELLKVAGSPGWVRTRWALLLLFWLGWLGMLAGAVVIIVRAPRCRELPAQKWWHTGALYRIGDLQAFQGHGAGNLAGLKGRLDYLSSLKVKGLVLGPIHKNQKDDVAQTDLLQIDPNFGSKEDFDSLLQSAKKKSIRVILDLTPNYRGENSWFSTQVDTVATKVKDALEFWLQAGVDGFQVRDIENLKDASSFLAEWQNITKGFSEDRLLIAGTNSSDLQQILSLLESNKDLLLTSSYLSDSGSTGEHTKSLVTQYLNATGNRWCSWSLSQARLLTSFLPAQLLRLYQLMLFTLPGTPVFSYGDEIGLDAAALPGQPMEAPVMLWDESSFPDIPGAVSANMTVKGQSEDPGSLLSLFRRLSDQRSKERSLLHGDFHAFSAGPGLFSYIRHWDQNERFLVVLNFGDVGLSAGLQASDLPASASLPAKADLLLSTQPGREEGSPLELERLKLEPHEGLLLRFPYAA
How it was run: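 IC50 (reported as pIC50) normalized to DMSO 1% and Erastin 50 μM controls, from Amplex Red fluorescence of glutamate exported into supernatant. H4 cells were washed into sodium-free buffer to exclude EAAT transport, then given compound with 50 μM L-cystine for 2 h in the incubator.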

system Xc^− [2] = biological target: T1, system Xc^−; test: [^14C]L-Cystine uptake assay; assay type: cell-based; parameters: endogenous in cells; host or cells: H4 cells; settings: H4 cells, sodium-free HEPES buffer, 0.5 μM L-[14C]Cystine and 4.5 μM L-Cystine, 1 hour at 37° C.; read-out: pIC50 [^14C] L-Cystine uptake assay (converted)
How it was run: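 Compound effect is given as pIC50, taken between controls of 1% DMSO and 50 μM Erastin. Human H4 cells were pretreated 15 min with compound in sodium-free buffer, then took up 0.5 μM [14C]cystine with 4.5 μM cold cystine for 1 hour at 37° C, read by scintillation proximity counting.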

Row | IC50 (system Xc^− [1]) [nM] | IC50 (system Xc^− [2]) [nM] | Compound
1 | 100 to 501 | 39.8 to 100 | O=C(CN1C(=O)Cc2ccccc2-c2cnc(Cl)cc21)Nc1ccc(C(F)(F)F)cc1 [#13, 2-(3-chloro-6-oxo-7H-pyrido[4,3-d][3]benzazepin-5-yl)-N-[4-(trifluoromethyl)phenyl]acetamide]
2 | 100 to 501 | < 15.8 | Cc1cc2c(cn1)-c1ccccc1CC(=O)N2CC(=O)Nc1ccc(C(F)(F)F)cc1 [#14, 2-(3-methyl-6-oxo-7H-pyrido[4,3-d][3]benzazepin-5-yl)-N-[4-(trifluoromethyl)-phenyl]acetamide]
3 | 100 to 501 | 15.8 to 39.8 | Cc1cc2c(nc1C)-c1ccccc1CC(=O)N2CC(=O)Nc1ccc(C(F)(F)F)cc1 [#15, 2-(2,3-dimethyl-6-oxo-7H-pyrido[3,2-d][3]benzazepin-5-yl)-N-[4-(trifluoro-methyl)phenyl] acetamide]
4 | 100 to 501 | 100 to 501 | O=C(CN1C(=O)Cc2ccccc2-c2ncc(F)cc21)Nc1ccc(C(F)(F)F)cc1 [#16, 2-(3-fluoro-6-oxo-7H-pyrido[3,2-d] [3]benzazepin-5-yl)-N-[4-(trifluoro-methyl)phenyl] acetamide]
5 | 100 to 501 | 100 to 501 | O=C(CN1C(=O)Cc2ccccc2-c2cnccc21)Nc1ccc(C(F)(F)F)cc1 [#17, 2-(6-oxo-7H-pyrido [4,3-d][3]benzazepin-5-yl)-N-[4-(trifluoro-methyl)phenyl] acetamide]
6 | 100 to 501 | 100 to 501 | Cc1ccc(NC(=O)CN2C(=O)Cc3cccnc3-c3cnc(Cl)cc32)cc1Cl [#18, N-(3-chloro-4-methyl-phenyl)-2-(13-chloro-9-oxo-3,10,14-triazatricyclo[9.4.0.0^2,7]pentadeca-1(11),2(7),3,5,12,14-hexaen-10-yl)acetamide]
7 | 100 to 501 | 100 to 501 | O=C(CN1C(=O)Cc2cccnc2-c2cnc(Cl)cc21)Nc1ccc(Br)c(Cl)c1 [#19, N-(4-bromo-3-chloro-phenyl)-2-(13-chloro-9-oxo-3,10,14-triazatricyclo[9.4.0.0^2,7]pentadeca-1(11),2(7),3,5,12,14-hexaen-10-yl)acetamide]
8 | 100 to 501 | 39.8 to 100 | Cc1cc2c(cn1)-c1cc(C)c(C)cc1N(CC(=O)Nc1ccc(C(F)(F)F)cc1)C(=O)C2 [#21, N-[4-(trifluoromethyl)phenyl]-2-(3,9,10-trimethyl-6-oxo-5H-pyrido[4,3-d][1]benzazepin-7-yl)acetamide]
9 | 100 to 501 | 39.8 to 100 | Cc1cc2c(cc1C)N(CC(=O)Nc1ccc(C(F)(F)F)cc1)C(=O)Cc1cccnc1-2 [#22, 2-(9,10-dimethyl-6-oxo-5H-pyrido[3,2-d][1]benzazepin-7-yl)-N-[4-(trifluoromethyl)phenyl]acetamide]
10 | 39.8 to 100 | 15.8 to 39.8 | Cc1cc2c(cc1C)N(CC(=O)Nc1ccc(C(F)(F)F)cc1)C(=O)Cc1ncccc1-2 [#23, 2-(9,10-dimethyl-6-oxo-5H-pyrido[2,3-d][1]benzazepin-7-yl)-N-[4-(trifluoromethyl)phenyl]acetamide]
11 | 100 to 501 | 15.8 to 39.8 | Cc1cc2c(cc1C)N(CC(=O)Nc1ccc(C(F)(F)F)cc1)C(=O)Cc1ccncc1-2 [#24, 2-(9,10-dimethyl-6-oxo-5H-pyrido[4,3-d][1]benzazepin-7-yl)-N-[4-(trifluoromethyl)phenyl]acetamide]
12 | 100 to 501 | 100 to 501 | O=C(CN1C(=O)Cc2ncccc2-c2cnc(Cl)cc21)Nc1ccc(C(F)(F)F)cc1 [#25, 2-(5-chloro-9-oxo-4,8,12-triazatricyclo[9.4.0.0^2,7]pentadeca-1(11),2(7),3,5,12,14-hexaen-8-yl)-N-[4-(trifluoromethyl)phenyl]acetamide]
13 | 100 to 501 | 39.8 to 100 | O=C(CN1C(=O)Cc2sccc2-c2cnc(Cl)cc21)Nc1ccc(C(F)(F)F)cc1 [#26, 2-(12-chloro-8-oxo-5-thia-9,13-diazatricyclo[8.4.0.0^2,6]tetradeca-1(10),2(6),3,11,13-pentaen-9-yl)-N-[4-(trifluoromethyl)phenyl]acetamide]
14 | 15.8 to 39.8 | < 15.8 | Cc1cc2c(c(C)n1)-c1ccccc1CC(=O)N2CC(=O)Nc1ccc(C(F)(F)F)cc1 [#27, 2-(1,3-dimethyl-6-oxo-7H-pyrido[4,3-d][3]benzazepin-5-yl)-N-[4-(trifluoromethyl)phenyl]acetamide]
15 | 39.8 to 100 | 39.8 to 100 | Cc1nccc2c1-c1ccccc1CC(=O)N2CC(=O)Nc1ccc(C(F)(F)F)cc1 [#28, 2-(1-methyl-6-oxo-7H-pyrido[4,3-d] [3]benzazepin-5-yl)-N-[4-(trifluoro-methyl)phenyl] acetamide]
16 | 100 to 501 | 100 to 501 | Cc1cc2c(cn1)N(CC(=O)Nc1ccc(C(F)(F)F)cc1)C(=O)Cc1ccccc1-2 [#29, 2-(2-methyl-6-oxo-7H-pyrido[3,4-d] [3]benzazepin-5-yl)-N-[4-(trifluoro-methyl)phenyl] acetamide]
17 | 100 to 501 | < 15.8 | Cc1cc2c(cn1)-c1cc(Cl)ccc1CC(=O)N2CC(=O)Nc1ccc(C(F)(F)F)cc1 [#30, 2-(10-chloro-3-methyl-6-oxo-7H-pyrido[4,3-d][3]benzazepin-5-yl)-N-[4-(trifluoro-methyl)phenyl] acetamide]
18 | 100 to 501 | 15.8 to 39.8 | Cc1cc2c(cn1)-c1cccc(Cl)c1CC(=O)N2CC(=O)Nc1ccc(C(F)(F)F)cc1 [#31, 2-(8-chloro-3-meth-yl-6-oxo-7H-pyrido [4,3-d][3]benzaze-pin-5-yl)-N-[4-(trifluoromethyl)-phenyl]acetamide]
19 | 100 to 501 | 100 to 501 | Cc1cc2c(cn1)-c1c(Cl)cccc1CC(=O)N2CC(=O)Nc1ccc(C(F)(F)F)cc1 [#32, 2-(11-chloro-3-methyl-6-oxo-7H-pyrido[4,3-d][3]benzazepin-5-yl)-N-[4-(trifluoro-methyl)phenyl] acetamide]
20 | 39.8 to 100 | 15.8 to 39.8 | Cc1cc2c(cn1)-c1cc(F)ccc1CC(=O)N2CC(=O)Nc1ccc(C(F)(F)F)cc1 [#33, 2-(10-fluoro-3-methyl-6-oxo-7H-pyrido[4,3-d][3]benzazepin-5-yl)-N-[4-(trifluoro-methyl)phenyl] acetamide]
21 | 100 to 501 | 39.8 to 100 | Cc1cc2c(cn1)-c1ccc(F)cc1CC(=O)N2CC(=O)Nc1ccc(C(F)(F)F)cc1 [#34, 2-(9-fluoro-3-methyl-6-oxo-7H-pyrido[4,3-d][3]benzazepin-5-yl)-N-[4-(trifluoro-methyl)phenyl] acetamide]
22 | 39.8 to 100 | 15.8 to 39.8 | Cc1cc2c(cn1)-c1cccc(F)c1CC(=O)N2CC(=O)Nc1ccc(C(F)(F)F)cc1 [#35, 2-(8-fluoro-3-methyl-6-oxo-7H-pyrido[4,3-d][3]benzazepin-5-yl)-N-[4-(trifluoro-methyl)phenyl] acetamide]
23 | 39.8 to 100 | 100 to 501 | Cc1cc2c(cn1)-c1cccnc1CC(=O)N2CC(=O)Nc1ccc(C(F)(F)F)cc1 [#36, 2-(5-methyl-9-oxo-4,8,12-triazatricyclo[9.4.0.0^2,7]pentadeca-1(11),2(7),3,5,12,14-hexaen-8-yl)-N-[4-(trifluoromethyl)phenyl]acetamide]
24 | 100 to 501 | 100 to 501 | O=C(CN1C(=O)Cn2nccc2-c2cnc(Cl)cc21)Nc1ccc(C(F)(F)F)cc1 [#37, 2-(12-chloro-8-oxo-5,6,9,13-tetrazatricyclo[8.4.0.0^2,6]tetradeca-1(10),2,4,11,13-pentaen-9-yl)-N-[4-(trifluoromethyl)phenyl]acetamide]
25 | 100 to 501 | 100 to 501 | Cc1cc2c(c(F)n1)-c1ncccc1CC(=O)N2CC(=O)Nc1ccc(C(F)(F)F)cc1 [#38, 2-(15-fluoro-13-methyl-9-oxo-3,10,14-triazatricyclo[9.4.0.0^2,7]pentadeca-1(11),2(7),3,5,12,14-hexaen-10-yl)-N-[4-(trifluoromethyl)phenyl]acetamide]
